# Data from PMC7408493, “Implication of Opioid Receptors in the Antihypertensive Effect of a Novel Chicken Foot-Derived Peptide” (Biomolecules, 2020).
# Ends that are not written are not given here.
# Tested on: Caco-2 cell monolayers
# Test: Transepithelial transport through Caco-2 monolayer
# Type: in vitro ADME
# Conditions: 1 h, 37 °C, UHPLC-HRMS
# Description: Caco-2 cells were obtained from Sigma-Aldrich and were grown Dulbecco’s modified minimum essential medium (DMEM), supplemented with 20% fetal bovine serum (FBS), […] L-glutamine, 100 U/mL penicillin and 100 μg/mL streptomycin at 37 °C in and 5% CO2. Cells were seeded onto Transwell inserts permeable membrane support (0.4 µm pore, 24 mm diameter, 4.7 cm^2 grown surface from Merck Co., Bedford, MA, USA) placed in six-well plates. The seeding density was 12,000 cell/cm^2. The medium was replaced every 2–3 days and cells were growing for 21 days. On the 21st day of the procedure, the integrity of the Caco-2 monolayer was assessed by the measurement of transepithelial electrical resistance (TEER) using a Millicell ERS-2 voltammeter (EMD Millipore, Darmstadt, Germany) selecting the ones with TEER values higher than 200 Ω/cm^2.
# For the transport study, Caco-2 cells, maintained in DMEM, were gently rinsed with Hank’s balanced salt solution (HBSS) and equilibrated for 20 min at 37 °C prior to the transport study. Then, it was evaluated the transepithelial transport of the peptide […] (1 mM) dissolved in HBSS and the digests obtained in the in vitro simulated digestion (G60 and D60). […] or the peptide digests G60 and D60 were added to the apical (AP) chamber and were incubated for 1 h at 37 °C. After this time, triplicates of the AP chamber content and the basolateral (BL) chamber content were taken and stored at −80 °C until ultra-high performance liquid chromatography-high resolution mass spectrometry (UHPLC-HRMS) analyses.
# Samples obtained from in vitro peptide simulated digestion and Caco-2 monolayers were diluted 10 times with water (0.1% FA) and centrifuged (15,000 rpm, 15 min, 4 °C). Supernatants were directly analyzed by UHPLC-HRMS to avoid the loss of polar peptide fragments. Extensive clean-up or pre-concentration procedures were not necessary due to the high concentration of peptide and low matrix complexity than plasma samples.
# The obtained purified solutions from plasma and peptide digests G60 and D60 and from AP and BL chambers in Caco-2 experiment were analyzed using a UHPLC 1290 Infinity II Series coupled to a QqQ 6490 Series (Agilent Technologies, Santa Clara, CA, USA) for tandem mass experiments or a qTOF 6550 Series (Agilent Technologies) for high-resolution mass spectrometry experiments. Chromatographic separation of peptide or their fragments were performed using a Kinetex 2.6 µm EVO C18 column (150 × 2.1 mm, […]) from (Phenomenex, Torrance, USA) as stationary phase and water containing 0.1% formic acid (solvent A) and acetonitrile (solvent B) as mobile phase. The separation was performed in gradient elution as follows: isocratic; 0–0.5 min, 2 % B; 0.5–1 min, 2–6% B; 1–5 min, 6–15% B; 5–6 min, 15–35% B; 6–10 min, 35–98% B; 10–12 min, 98% B isocratic; 12–12.10, 98–2% B. For all runs, 10 μL of the sample (4 °C) was injected, and the flow rate was 0.350 mL/min and the column temperature was 25 °C.
# For in vitro simulated digestion experiments and Caco-2 monolayer samples, qTOF instrument was used to investigate the presence of unknown peptide fragments and previously in silico predicted peptide fragments by means of its accurate mass. Peptide and its fragments were semi-quantified using the chromatographic peak area observed in the extracted ion chromatograms using a 20 ppm mass window.
sequence,measurement,setting,value
AVFQHNCQE,G60 % Transport,"21 days, TEER > 200 Ω/cm^2, gastric digest G60 added to apical chamber, AP to BL, HBSS, content in basolateral chamber in comparison to apical chamber, triplicates",0.25%
same,Absorption through the intestinal monolayer,native peptide 1 mM in HBSS or digests in apical chamber,not absorbed through the intestinal monolayer
